These results are taken from patent US20220213099A1, “PRODRUG COMPOUNDS” (BRISTOL-MYERS SQUIBB COMPANY, priority 2019, published 2022).

Series [1] in a line: Solubility evaluation in aqueous buffer. Format: physicochemical. As to conditions: aqueous buffer, 25 °C, thermodynamic from solid, about 24 hours equilibration. Here is the method:
The solid powder of an individual prodrug was equilibrated in aqueous buffers of pH 1, 4 and 6.5 at 25° C. for about 24 hours. After equilibration, the excess solid was separated by filtration using 0.45 μm membrane filter and the filtrate was collected in suitable glass vial. The filtrate was diluted appropriately using respective buffers/diluent and analyzed by a reversed phase LC method with UV detection.

Series [2] can be described thus: Stability evaluation in aqueous buffer. Format: physicochemical. As to conditions: aqueous buffer, 37° C., about 50 μg/mL, about 15% v/v acetonitrile. As for the experimental part:
The stability study of an individual prodrug was conducted with about 50 μg/mL solutions in aqueous buffers of pH 1 (0.1 M HCl), 4 (acetate buffer) and 6.5 (phosphate buffer) at 37° C. for 24 hours. About 15% v/v acetonitrile was used in these pH buffers as a co-solvent to obtain clear solutions of prodrugs. The sample analysis was carried out using a generic reversed phase liquid chromatographic (LC) method with UV detection. The area percent (AP) loss of the prodrug peak was quantified as a function of time. The appearance of parent peak was identified from the chromatographic retention time. The half-life (t1/2, h) of the prodrug was calculated by using a pseudo-first order equation from a AP loss vs time plot.

The test system of a further series is rat rIALP. Description: Recombinant intestinal alkaline phosphatase (rIALP) assay, rat. Format: in vitro ADME. The following applies: 100 mM Tris-HCl buffer pH 7.4, 37° C., 120 minutes incubation, read-out: t1/2 in rat rIALP. As for the experimental part: (§1) Examples 8 and 9 were evaluated in this assay. To assess the potential for generation of parent drug from the phosphate prodrugs, 100 μL of rIALP was dissolved in 100 mM Tris-HCl buffer (pH 7.4) and it was added to 100 μL of freshly prepared prodrug solution (10 mM) prepared in the same buffer. Incubations were performed in triplicate using 96-well plates (Waters, Milford, Mass.) at 37° C. in a shaking water bath (Julabo, Allentown, Pa.). The prodrug and enzyme solution were pre-warmed at 37° C. before the reaction was initiated by addition of substrate. The incubation was performed for 120 minutes with […] taken at 0, 5, 10, 15, 30, 60, 90, and 120 minutes. The assays were terminated at designated time points by the addition of 200 μL of ice-cold acetonitrile containing internal standard followed by centrifugation at 4000 g for 4 minutes. The supernatant was transferred to a new 96-well plate for analysis by ultra-performance liquid chromatography combined with tandem mass spectrometry (UPLC-MS/MS). The t1/2 value for each prodrug/protein combination was determined from the natural logarithm of percent remaining versus time plots.

For the next series, the target named is T1, human rIALP (Homo sapiens, UniProt P09923).
T1 sequence (P09923 20-503 limits assumed): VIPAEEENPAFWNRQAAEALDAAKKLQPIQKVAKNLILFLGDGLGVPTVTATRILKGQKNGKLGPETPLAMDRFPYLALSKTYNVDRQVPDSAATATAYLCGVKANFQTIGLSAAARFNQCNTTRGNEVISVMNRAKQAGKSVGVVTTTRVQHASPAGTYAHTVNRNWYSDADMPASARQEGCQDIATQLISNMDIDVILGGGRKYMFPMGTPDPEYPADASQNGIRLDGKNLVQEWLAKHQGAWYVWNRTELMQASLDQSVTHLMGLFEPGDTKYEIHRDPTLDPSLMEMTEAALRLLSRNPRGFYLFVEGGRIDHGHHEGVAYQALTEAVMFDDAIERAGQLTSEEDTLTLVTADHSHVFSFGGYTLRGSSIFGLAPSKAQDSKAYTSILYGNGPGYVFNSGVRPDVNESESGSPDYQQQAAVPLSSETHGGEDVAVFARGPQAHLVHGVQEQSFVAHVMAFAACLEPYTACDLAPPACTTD
Description: Recombinant intestinal alkaline phosphatase (rIALP) assay, human. In kind it is in vitro ADME. As to conditions: 100 mM Tris-HCl buffer pH 7.4, 37° C., 120 minutes incubation, read-out: t1/2 in human rIALP. Here is the method: as §1

Setting [3] is: pH 1, simulated gastric fluid, aqueous buffer pH 1, 25° C., read-out: Solubility (mg/mL) at 25° C. pH 1.
Where [4] appears, read: pH 4, aqueous buffer, aqueous buffer pH 4, 25° C., read-out: Solubility (mg/mL) at 25° C. pH 4.
Setting [5] is: pH 6.5, aqueous buffer, aqueous buffer pH 6.5, 25° C., read-out: Solubility (mg/mL) at 25° C. pH 6.5.
Setting [6] is: pH 1, pH 1 (0.1 M HCl), read-out: Stability (t1/2, h) at 37° C. pH 1 (converted).
Where [7] appears, read: pH 4, pH 4 (acetate buffer), read-out: Stability (t1/2, h) at 37° C. pH 4 (converted).
[8] abbreviates: pH 6.5, pH 6.5 (phosphate buffer), read-out: Stability (t1/2, h) at 37° C. pH 6.5 (converted).

Structures are written as SMILES. Counter-ions that a name gives are not always drawn. Like-named read-outs stand apart in the source and are kept apart here.

For the molecule `Cc1c(-c2[nH]c3ccc(C4CCN(CC(N)=O)CC4)cc3c2C(C)C)cn2nc[n+](COP(=O)(O)O)c2c1C` (single isomer, unassigned) [Example 8, 6-(5-(1-(2-Amino-2-oxoethyl)piperidin-4-yl)-3-isopropyl-1H-indol-2-yl)-7,8-dimethyl-1-((phosphonooxy)methyl)-[1,2,4]triazolo[1,5-a]pyridin-1-ium trifluoroacetate], the solubility is more than 0.86 mg/mL in series [1] (setting [3]), 0.03 mg/mL in series [1] (setting [4]) and 0.86 mg/mL in series [1] (setting [5]). Further, the half-life in series [2] (setting [6]), in series [2] (setting [7]) and in series [2] (setting [8]) was more than 500 h in each case. The half-life at 5 mM was less than 0.00347 days in the series on rat rIALP and less than 0.00694 days on human rIALP.
As to `Cc1c(-c2[nH]c3ccc(C4CC[N+](COP(=O)(O)O)(CC(N)=O)CC4)cc3c2C(C)C)cn2ncnc2c1C` (single isomer, unassigned) [Example 9, 1-(2-Amino-2-oxoethyl)-4-(2-(7,8-dimethyl-[1,2,4]triazolo[1,5-a]pyridin-6-yl)-3-isopropyl-1H-indol-5-yl)-1-((phosphonooxy)methyl)piperidin-1-ium trifluoroacetate], the solubility in series [1] (setting [3]) is more than 1.14 mg/mL; in series [1] (setting [4]), 0.85 mg/mL; in series [1] (setting [5]) it was 1.34 mg/mL. Moreover, the half-life in series [2] (setting [6]), in series [2] (setting [7]) and in series [2] (setting [8]) was more than 500 h in each case. Moreover, the half-life at 5 mM with rat rIALP and at human rIALP was less than 0.00347 days each time.
